# Results taken from patent publication US12655125B2 (SIRONAX LTD., priority 2020, dated 2026).
# Read-outs that look alike come from different tables or passages of the source.
# Test system: HT-29 cells
# Assay: HT29 Cells 0FBS Assay In Vitro (TNF-α/SMAC mimetic/zVAD-FMK induced necroptosis, CellTiter-Glo cell viability)
# Format: cell-based
# Details: Homo sapiens
# Summary of the method: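 HT-29 cells (5,000/well, seeded overnight) in serum-free McCoy's 5A were stimulated with TNF-α 10 ng/ml, SMAC mimetic 6 μM and zVAD-FMK 10 μM to induce necroptosis. Compound added as 10-point 3-fold series for 20 h at 37° C. CellTiter-Glo luminescence gives viability; EC50 is geometric mean of duplicate dose-responses.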
# [1] = HT-29 cells, FBS free medium, TNF-α (10 ng/ml), SMAC mimetic (6 uM), zVAD-FMK (10 μM), 20 hours, geometric mean EC50, read-out: Cell activity (EC50) of Compounds 1-116
# [2] = HT-29 cells, FBS free medium, TNF-α (10 ng/ml), SMAC mimetic (6 uM), zVAD-FMK (10 μM), 20 hours, geometric mean EC50, read-out: Cell activity (EC50) of Compounds 117-281
SMILES,EC50 [1],EC50 [2],also measured
"COCCn1nc(C)c(-c2cc(OC3CN(C(=O)N4N=CC[C@H]4c4cc(F)cc(F)c4)C3)c(F)cn2)c1C [compound 93, (S)-(5-(3,5-difluorophenyl)-4,5-dihydro-1H-pyrazol-1-yl)(3-((5-fluoro-2-(1-(2-methoxyethyl)-3,5-dimethyl-1H-pyrazol-4-yl)pyridin-4-yl)oxy)azetidin-1-yl)methanone]",0.1 to 100 nM,,
"Cc1nn(CC2CC2)c(C)c1-c1cc(OC2CN(C(=O)N3N=CC[C@H]3c3cc(F)cc(F)c3)C2)c(F)cn1 [compound 132, (S)-(3-((2-(1-(cyclopropylmethyl)-3,5-dimethyl-1H-pyrazol-4-yl)-5-fluoropyridin-4-yl)oxy)azetidin-1-yl)(5-(3,5-difluorophenyl)-4,5-dihydro-1H-pyrazol-1-yl)methanone]",,0.1 to 100 nM,
"Cc1nn(-c2cc(OC3CN(C(=O)N4N=CC[C@H]4c4cc(F)cc(F)c4)C3)c(F)cn2)c(C)c1C(=O)NC1CCOCC1 [compound 216, (S)-1-(4-((1-(5-(3,5-difluorophenyl)-4,5-dihydro-1H-pyrazole-1-carbonyl)azetidin-3-yl)oxy)-5-fluoropyridin-2-yl)-3,5-dimethyl-N-(tetrahydro-2H-pyran-4-yl)-1H-pyrazole-4-carboxamide]",,0.1 to 100 nM,
"CN(C)C(=O)c1cnn(C)c1-c1cc(OC2CN(C(=O)N3N=CC[C@H]3c3cc(F)cc(F)c3)C2)c(F)cn1 [compound 68, (S)-5-(4-((1-(5-(3,5-difluorophenyl)-4,5-dihydro-1H-pyrazole-1-carbonyl)azetidin-3-yl)oxy)-5-fluoropyridin-2-yl)-N,N,1-trimethyl-1H-pyrazole-4-carboxamide]",1000 to 10000 nM,,
"Cn1ncc(CO)c1-c1cc(OC2CN(C(=O)N3N=CC[C@H]3c3cc(F)cc(F)c3)C2)c(F)cn1 [compound 78, (S)-(5-(3,5-difluorophenyl)-4,5-dihydro-1H-pyrazol-1-yl)(3-((5-fluoro-2-(4-(hydroxymethyl)-1-methyl-1H-pyrazol-5-yl)pyridin-4-yl)oxy)azetidin-1-yl)methanone]",0.1 to 100 nM,,
"Cc1cnn(C)c1-c1cnc(F)c(OC2CN(C(=O)N3N=CC[C@H]3c3cc(F)cc(F)c3)C2)c1 [compound 208, (S)-(5-(3,5-difluorophenyl)-4,5-dihydro-1H-pyrazol-1-yl)(3-((5-(1,4-dimethyl-1H-pyrazol-5-yl)-2-fluoropyridin-3-yl)oxy)azetidin-1-yl)methanone]",,0.1 to 100 nM,
"Cc1c(NC(=O)C2CC2)nn(C)c1-c1cc(OC2CN(C(=O)N3N=CC[C@H]3c3cc(F)cc(F)c3)C2)c(F)cn1 [compound 144, (S)—N-(5-(4-((1-(5-(3,5-difluorophenyl)-4,5-dihydro-1H-pyrazole-1-carbonyl)azetidin-3-yl)oxy)-5-fluoropyridin-2-yl)-1,4-dimethyl-1H-pyrazol-3-yl)cyclopropanecarboxamide]",,0.1 to 100 nM,
"Cn1ncc(-c2cc(OC3CN(C(=O)N4N=CC[C@H]4c4cc(F)cc(F)c4)C3)c(F)cn2)n1 [compound 33, (S)-(5-(3,5-difluorophenyl)-4,5-dihydro-1H-pyrazol-1-yl)(3-((5-fluoro-2-(2-methyl-2H-1,2,3-triazol-4-yl)pyridin-4-yl)oxy)azetidin-1-yl)methanone]",0.1 to 100 nM,,
"CCNC(=O)c1c(C)nn(-c2cc(OC3CN(C(=O)N4N=CC[C@H]4c4cc(F)cc(F)c4)C3)c(F)cn2)c1C [compound 231, (S)-1-(4-((1-(5-(3,5-difluorophenyl)-4,5-dihydro-1H-pyrazole-1-carbonyl)azetidin-3-yl)oxy)-5-fluoropyridin-2-yl)-N-ethyl-3,5-dimethyl-1H-pyrazole-4-carboxamide]",,0.1 to 100 nM,
"Cc1c(-c2cc(OC3CN(C(=O)N4N=CC[C@H]4c4cc(F)cc(F)c4)C3)c(F)cn2)nn(C)c1C#N [compound 237, (S)-3-(4-((1-(5-(3,5-difluorophenyl)-4,5-dihydro-1H-pyrazole-1-carbonyl)azetidin-3-yl)oxy)-5-fluoropyridin-2-yl)-1,4-dimethyl-1H-pyrazole-5-carbonitrile]",,0.1 to 100 nM,
"Cn1ncc(NCCN2CCOCC2)c1-c1cc(OC2CN(C(=O)N3N=CC[C@H]3c3cc(F)cc(F)c3)C2)c(F)cn1 [compound 120, (S)-(5-(3,5-difluorophenyl)-4,5-dihydro-1H-pyrazol-1-yl)(3-((5-fluoro-2-(1-methyl-4-((2-morpholinoethyl)amino)-1H-pyrazol-5-yl)pyridin-4-yl)oxy)azetidin-1-yl)methanone]",,0.1 to 100 nM,
"Cc1nn(CC(N)=O)c(C)c1-c1cc(OC2CN(C(=O)N3N=CC[C@H]3c3cc(F)cc(F)c3)C2)c(F)cn1 [compound 94, (S)-2-(4-(4-((1-(5-(3,5-difluorophenyl)-4,5-dihydro-1H-pyrazole-1-carbonyl)azetidin-3-yl)oxy)-5-fluoropyridin-2-yl)-3,5-dimethyl-1H-pyrazol-1-yl)acetamide]",0.1 to 100 nM,,
"Cc1nn(-c2cc(OC3CN(C(=O)N4N=CC[C@H]4c4cc(F)cc(F)c4)C3)c(F)cn2)c(C)c1C(=O)NCCO [compound 214, (S)-1-(4-((1-(5-(3,5-difluorophenyl)-4,5-dihydro-1H-pyrazole-1-carbonyl)azetidin-3-yl)oxy)-5-fluoropyridin-2-yl)-N-(2-hydroxyethyl)-3,5-dimethyl-1H-pyrazole-4-carboxamide]",,0.1 to 100 nM,
"Cn1ncnc1-c1cc(OC2CN(C(=O)N3N=CC[C@H]3c3cc(F)cc(F)c3)C2)c(F)cn1 [compound 29, (S)-(5-(3,5-difluorophenyl)-4,5-dihydro-1H-pyrazol-1-yl)(3-((5-fluoro-2-(1-methyl-1H-1,2,4-triazol-5-yl)pyridin-4-yl)oxy)azetidin-1-yl)methanone]",0.1 to 100 nM,,
"Cc1noc(C)c1-c1ncc(F)c(OC2CN(C(=O)N3N=CC[C@H]3c3cc(F)cc(F)c3)C2)n1 [compound 20, (S)-(5-(3,5-difluorophenyl)-4,5-dihydro-1H-pyrazol-1-yl)(3-((2-(3,5-dimethylisoxazol-4-yl)-5-fluoropyrimidin-4-yl)oxy)azetidin-1-yl)methanone]",0.1 to 100 nM,,
"COC(=O)c1cnn(C)c1-c1cc(OC2CN(C(=O)N3N=CC[C@H]3c3cc(F)cc(F)c3)C2)c(F)cn1 [compound 64, methyl (S)-5-(4-((1-(5-(3,5-difluorophenyl)-4,5-dihydro-1H-pyrazole-1-carbonyl)azetidin-3-yl)oxy)-5-fluoropyridin-2-yl)-1-methyl-1H-pyrazole-4-carboxylate]",0.1 to 100 nM,,
"Cc1nn(CCO)c(C)c1-c1cc(OC2CN(C(=O)N3N=CC[C@H]3c3cc(F)cc(F)c3)C2)c(F)cn1 [compound 117, (S)-(5-(3,5-difluorophenyl)-4,5-dihydro-1H-pyrazol-1-yl)(3-((5-fluoro-2-(1-(2-hydroxyethyl)-3,5-dimethyl-1H-pyrazol-4-yl)pyridin-4-yl)oxy)azetidin-1-yl)methanone]",,,"EC50 (HT-29, 20 h, read-out: Cell activity (EC50) of Compounds 117-281): 0.1 to 100 nM"
"Cc1nn(-c2cc(OC3CN(C(=O)N4N=CC[C@H]4c4cc(F)cc(F)c4)C3)c(F)cn2)c(C)c1[N+](=O)[O-] [compound 108, (S)-(5-(3,5-difluorophenyl)-4,5-dihydro-1H-pyrazol-1-yl)(3-((2-(3,5-dimethyl-4-nitro-1H-pyrazol-1-yl)-5-fluoropyridin-4-yl)oxy)azetidin-1-yl)methanone]",0.1 to 100 nM,,
"Cn1cncc1-c1ncc(F)c(OC2CN(C(=O)N3N=CC[C@H]3c3cc(F)cc(F)c3)C2)n1 [compound 8, (S)-(5-(3,5-difluorophenyl)-4,5-dihydro-1H-pyrazol-1-yl)(3-((5-fluoro-2-(1-methyl-1H-imidazol-5-yl)pyrimidin-4-yl)oxy)azetidin-1-yl)methanone]",0.1 to 100 nM,,
